# Data taken from US4647562A, “Anti-spasmodic agents having three branch chains” (United Pharmaceuticals, Inc., priority 1985, dated 1987).
# Where a name gives a salt, the structure may show the parent alone. Read-outs that look alike come from different tables or passages of the source.
# What was measured:
# [1] = system: muscarinic receptors; format: binding, rabbit (New Zealand White); conditions: 1.0 × 10^-5 M compound; 0.1 nM [^3 H]QNB; 37° C., 60 minutes; pH 7.4
# [2] = system: rabbit urinary bladder strip; experiment: Relaxation of bethanechol-contracted rabbit urinary bladder strip preparation; conditions: for inhibition at 0.01 µM / inhibition at 0.1 µM / inhibition at 1 µM / inhibition at 10 µM / inhibition at 100 µM: Oryctolagus cuniculus
# Procedure: The pharmacological actions of three anti-spasmodic compounds were studied in a rabbit urinary bladder strip preparation. In general, longitudinal strips were prepared from the base of freshly isolated rabbit bladders and were then suspended under near-physiological conditions in tissue baths. The strips were attached to force transducers and both contractile and relaxant activity was measured. To measure the relaxant effects on the anti-spasmodic compounds on previously-contracted bladder strips, the strips were initially exposed to the muscarinic receptor agonist bethanechol and allowed to reach a steady level of contractile activity for 20 minutes. At this point cumulative dose-responses to the various compounds were recorded. The rabbit abdomens were opened through a vertical midline incision. […] Tissues were allowed to equilibrate to a tension of 2 gm for sixty minutes during which time buffer was replaced at 20 minute intervals. […] Bethanechol was employed as the representative cholinergic agonist and, following equilibration, was added to the baths for a final concentration of 250 μM. The tissues were allowed 20 minutes to achieve a maintained level of contraction in response to bethanechol and, at this point, cumulative dose-response measurements for three anti-spasmodic compounds were started at concentrations ranging from 10^-8 M to 10^-4 M. Solutions were added in volumes up to 100 μl and were prepared fresh each day by dissolving them in distilled:deionzed water. […]
# [3] = system: smooth muscle; conditions: prior knowledge on thiphenamil hydrochloride; cited from earlier work
# [4] = 10^-4 moles/liter, bethanechol 250 μM
# [5] = 10^-5 moles/liter, bethanechol 250 μM
# [6] = 10^-6 moles/liter, bethanechol 250 μM
# [7] = 10^-7 moles/liter, bethanechol 250 μM
# [8] = 10^-8 moles/liter, bethanechol 250 μM
# [9] = pH 7.4, read-out: % of maximum relaxation
# [10] = read-out: % background relaxation
SMILES,% inhibition of ^3 H[QNB] binding [1],"Decrease in force of contraction of rabbit bladder strip [2, 4]","Increase in length of rabbit bladder strip [2, 4]","Decrease in force of contraction of rabbit bladder strip [2, 5]","Increase in length of rabbit bladder strip [2, 5]","Decrease in force of contraction of rabbit bladder strip [2, 6]","Increase in length of rabbit bladder strip [2, 6]","Decrease in force of contraction of rabbit bladder strip [2, 7]","Increase in length of rabbit bladder strip [2, 7]","Decrease in force of contraction of rabbit bladder strip [2, 8]","Increase in length of rabbit bladder strip [2, 8]",other results
CCN(CC)CCSC(=O)C(C)(C)C [trimethylacetyl-thio-S-(2-diethylaminoethyl)-ester.HCl],66%,0.82 gm,4.1 cm,0.40 gm,2.0 cm,0.38 gm,1.9 cm,0.38 gm,1.9 cm,0.00 gm,0.0 cm,"inhibition at 0.01 µM [2, 9]: 0%; inhibition at 0.1 µM [2, 9]: 16.5%; inhibition at 1 µM [2, 9]: 16.5%; inhibition at 10 µM [2, 9]: 16.5%; inhibition at 100 µM [2, 9]: 35.7%; inhibition at 0.01 µM [2, 10]: 0%; inhibition at 0.1 µM [2, 10]: 14.1%; inhibition at 1 µM [2, 10]: 14.1%; inhibition at 10 µM [2, 10]: 14.1%; inhibition at 100 µM [2, 10]: 29.7%"
CCN(CC)CCSC(=O)C(c1ccccc1)c1ccccc1 [Thiphenamil hydrochloride],–,–,–,–,–,–,–,–,–,–,–,"atropinic side effects [3]: without producing characteristic atropinic side effects on salivary and sweat glands, GI glands, the eye or the cardiovascular system; decrease spasm [3]: decrease spasm of the gastrointestinal tract, biliary tract, ureter and uterus"
CCN(CC)CCSC(=O)CC(C)(C)C [t-butyl-acetyl-thio-S-(2-diethylaminoethyl)-ester.HCl],76%,1.08 gm,3.9 cm,0.22 gm,0.6 cm,0.03 gm,0.1 cm,0.00 gm,0.0 cm,0.03 gm,0.1 cm,"inhibition at 100 µM ([2]; pH 7.4, 10^-4 moles/liter, bethanechol 250 μM, maximal = pre-bethanechol baseline, read-out: % of maximum relaxation): 98%; inhibition at 10 µM ([2]; pH 7.4, 10^-5 moles/liter, bethanechol 250 μM, maximal = pre-bethanechol baseline, read-out: % of maximum relaxation): 15%; inhibition at 1 µM ([2]; pH 7.4, 10^-6 moles/liter, bethanechol 250 μM, maximal = pre-bethanechol baseline, read-out: % of maximum relaxation): 2.5%; inhibition at 0.1 µM ([2]; pH 7.4, 10^-7 moles/liter, bethanechol 250 μM, maximal = pre-bethanechol baseline, read-out: % of maximum relaxation): 0%; inhibition at 0.01 µM ([2]; pH 7.4, 10^-8 moles/liter, bethanechol 250 μM, maximal = pre-bethanechol baseline, read-out: % of maximum relaxation): 2.5%; inhibition at 100 µM ([2]; 10^-4 moles/liter, bethanechol 250 μM, read-out: % background relaxation): 80%; inhibition at 10 µM ([2]; 10^-5 moles/liter, bethanechol 250 μM, read-out: % background relaxation): 1.3%; inhibition at 1 µM ([2]; 10^-6 moles/liter, bethanechol 250 μM, read-out: % background relaxation): 0%; inhibition at 0.1 µM ([2]; 10^-7 moles/liter, bethanechol 250 μM, read-out: % background relaxation): 0%; inhibition at 0.01 µM ([2]; 10^-8 moles/liter, bethanechol 250 μM, read-out: % background relaxation): 0%"
